Assay results taken from ChEMBL document CHEMBL5291721, “A preclinical secondary pharmacology resource illuminates target-adverse drug reaction associations of marketed drugs” (Nat Commun, 2023).

Key:
[1] = target: T1, B2 bradykinin receptor (Homo sapiens, UniProt P30411)
T1 sequence (P30411 whole entry): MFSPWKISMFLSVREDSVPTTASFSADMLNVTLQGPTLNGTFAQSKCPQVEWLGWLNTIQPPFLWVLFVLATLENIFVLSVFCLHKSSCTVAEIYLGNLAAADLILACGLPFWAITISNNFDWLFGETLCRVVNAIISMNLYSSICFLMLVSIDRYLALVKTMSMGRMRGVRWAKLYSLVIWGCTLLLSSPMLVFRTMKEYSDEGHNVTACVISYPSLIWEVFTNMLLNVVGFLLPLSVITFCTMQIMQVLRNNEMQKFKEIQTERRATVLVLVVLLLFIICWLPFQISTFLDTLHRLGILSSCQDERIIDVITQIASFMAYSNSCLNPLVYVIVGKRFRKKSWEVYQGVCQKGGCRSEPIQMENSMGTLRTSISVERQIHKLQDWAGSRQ

[2] = target: T2, Progesterone receptor (Homo sapiens, UniProt P06401)
T2 sequence (P06401 whole entry): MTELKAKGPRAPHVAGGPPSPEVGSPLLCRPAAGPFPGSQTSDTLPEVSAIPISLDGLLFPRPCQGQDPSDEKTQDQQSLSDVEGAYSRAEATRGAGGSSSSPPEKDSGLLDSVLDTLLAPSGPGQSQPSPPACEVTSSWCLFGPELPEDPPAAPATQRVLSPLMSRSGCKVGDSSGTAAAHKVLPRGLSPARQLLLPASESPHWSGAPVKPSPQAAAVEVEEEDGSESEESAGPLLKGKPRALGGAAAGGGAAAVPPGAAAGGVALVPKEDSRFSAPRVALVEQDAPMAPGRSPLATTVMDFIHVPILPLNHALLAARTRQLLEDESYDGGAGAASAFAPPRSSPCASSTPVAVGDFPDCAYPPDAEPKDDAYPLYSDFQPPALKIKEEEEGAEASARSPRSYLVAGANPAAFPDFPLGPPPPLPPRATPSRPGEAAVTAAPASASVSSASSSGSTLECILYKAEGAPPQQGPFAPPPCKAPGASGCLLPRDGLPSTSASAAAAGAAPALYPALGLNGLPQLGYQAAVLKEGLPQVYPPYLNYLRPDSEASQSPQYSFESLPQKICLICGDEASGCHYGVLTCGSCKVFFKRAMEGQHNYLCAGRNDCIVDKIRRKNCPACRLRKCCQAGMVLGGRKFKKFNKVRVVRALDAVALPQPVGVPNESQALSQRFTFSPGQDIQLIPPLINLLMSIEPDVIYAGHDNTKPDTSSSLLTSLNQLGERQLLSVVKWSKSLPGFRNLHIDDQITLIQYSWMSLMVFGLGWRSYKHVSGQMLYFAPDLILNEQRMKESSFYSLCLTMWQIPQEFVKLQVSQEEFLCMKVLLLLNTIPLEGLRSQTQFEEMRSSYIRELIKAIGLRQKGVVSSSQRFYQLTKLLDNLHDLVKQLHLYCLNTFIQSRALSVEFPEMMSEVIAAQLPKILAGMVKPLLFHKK

[3] = target: Sodium-dependent dopamine transporter (Homo sapiens, UniProt Q01959)
Sodium-dependent dopamine transporter, sequence (Q01959 whole entry): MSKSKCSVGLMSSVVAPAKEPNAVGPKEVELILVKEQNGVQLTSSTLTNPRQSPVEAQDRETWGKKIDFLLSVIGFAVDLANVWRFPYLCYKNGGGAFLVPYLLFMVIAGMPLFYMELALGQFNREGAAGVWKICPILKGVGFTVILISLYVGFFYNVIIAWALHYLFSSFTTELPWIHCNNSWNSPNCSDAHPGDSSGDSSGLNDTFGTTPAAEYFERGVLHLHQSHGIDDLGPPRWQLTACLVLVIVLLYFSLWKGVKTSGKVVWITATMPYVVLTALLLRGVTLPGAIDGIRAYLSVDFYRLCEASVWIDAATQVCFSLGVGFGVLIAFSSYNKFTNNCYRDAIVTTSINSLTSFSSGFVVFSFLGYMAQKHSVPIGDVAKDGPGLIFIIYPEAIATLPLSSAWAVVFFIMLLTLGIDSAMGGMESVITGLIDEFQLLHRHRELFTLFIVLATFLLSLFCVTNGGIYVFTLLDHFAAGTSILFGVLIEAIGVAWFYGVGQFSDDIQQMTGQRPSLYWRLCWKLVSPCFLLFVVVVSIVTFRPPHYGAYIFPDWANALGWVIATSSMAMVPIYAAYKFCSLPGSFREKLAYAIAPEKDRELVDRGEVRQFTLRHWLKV

[4] = target: T3, Alpha-2A adrenergic receptor (Homo sapiens, UniProt P08913)
T3 sequence (P08913 whole entry): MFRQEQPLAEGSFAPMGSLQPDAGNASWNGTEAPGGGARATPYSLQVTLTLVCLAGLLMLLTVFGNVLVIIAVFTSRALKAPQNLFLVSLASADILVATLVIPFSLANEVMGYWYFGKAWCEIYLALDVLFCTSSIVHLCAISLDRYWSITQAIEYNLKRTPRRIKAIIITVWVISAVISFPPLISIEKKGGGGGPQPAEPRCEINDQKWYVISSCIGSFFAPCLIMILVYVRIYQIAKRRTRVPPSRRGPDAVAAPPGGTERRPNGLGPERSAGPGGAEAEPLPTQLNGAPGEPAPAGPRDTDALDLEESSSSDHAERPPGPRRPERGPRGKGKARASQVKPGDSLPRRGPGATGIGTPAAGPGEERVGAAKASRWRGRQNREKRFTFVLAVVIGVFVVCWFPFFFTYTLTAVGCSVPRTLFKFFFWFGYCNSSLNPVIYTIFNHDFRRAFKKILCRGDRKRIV

[5] = target: T4, 5-hydroxytryptamine receptor 1A (Homo sapiens, UniProt P08908)
T4 sequence (P08908 whole entry): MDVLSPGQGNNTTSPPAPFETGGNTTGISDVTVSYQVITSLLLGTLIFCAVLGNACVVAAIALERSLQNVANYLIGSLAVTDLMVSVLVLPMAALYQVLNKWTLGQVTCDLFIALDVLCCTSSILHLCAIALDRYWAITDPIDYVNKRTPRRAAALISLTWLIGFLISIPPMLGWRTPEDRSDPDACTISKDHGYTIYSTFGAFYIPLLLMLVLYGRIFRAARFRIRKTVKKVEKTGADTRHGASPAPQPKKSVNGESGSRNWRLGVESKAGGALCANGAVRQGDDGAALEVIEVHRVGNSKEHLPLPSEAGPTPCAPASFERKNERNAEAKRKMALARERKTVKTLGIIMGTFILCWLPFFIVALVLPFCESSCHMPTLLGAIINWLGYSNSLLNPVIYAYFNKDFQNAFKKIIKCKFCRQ

[6] = target: Prostaglandin G/H synthase 1 (Homo sapiens, UniProt P23219); format: functional
Prostaglandin G/H synthase 1, sequence (P23219 whole entry): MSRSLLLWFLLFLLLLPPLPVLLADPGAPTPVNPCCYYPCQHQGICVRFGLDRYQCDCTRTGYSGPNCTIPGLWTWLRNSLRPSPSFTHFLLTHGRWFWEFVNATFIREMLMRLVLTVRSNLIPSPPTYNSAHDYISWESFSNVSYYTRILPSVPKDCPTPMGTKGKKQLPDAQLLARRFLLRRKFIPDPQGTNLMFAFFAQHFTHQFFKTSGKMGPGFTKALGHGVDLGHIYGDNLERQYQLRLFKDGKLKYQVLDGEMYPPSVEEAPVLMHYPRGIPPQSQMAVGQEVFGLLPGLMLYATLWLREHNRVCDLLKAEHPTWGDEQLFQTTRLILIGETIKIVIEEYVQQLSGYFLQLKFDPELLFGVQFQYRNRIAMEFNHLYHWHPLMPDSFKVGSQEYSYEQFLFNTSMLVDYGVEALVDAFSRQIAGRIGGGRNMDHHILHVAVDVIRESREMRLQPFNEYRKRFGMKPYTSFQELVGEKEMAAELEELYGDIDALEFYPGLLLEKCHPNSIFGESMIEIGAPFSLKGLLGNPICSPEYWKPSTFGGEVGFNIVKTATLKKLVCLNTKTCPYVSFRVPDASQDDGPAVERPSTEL

[7] = target: Vascular endothelial growth factor receptor 2 (Homo sapiens, UniProt P35968); format: functional
Vascular endothelial growth factor receptor 2, sequence (P35968 whole entry): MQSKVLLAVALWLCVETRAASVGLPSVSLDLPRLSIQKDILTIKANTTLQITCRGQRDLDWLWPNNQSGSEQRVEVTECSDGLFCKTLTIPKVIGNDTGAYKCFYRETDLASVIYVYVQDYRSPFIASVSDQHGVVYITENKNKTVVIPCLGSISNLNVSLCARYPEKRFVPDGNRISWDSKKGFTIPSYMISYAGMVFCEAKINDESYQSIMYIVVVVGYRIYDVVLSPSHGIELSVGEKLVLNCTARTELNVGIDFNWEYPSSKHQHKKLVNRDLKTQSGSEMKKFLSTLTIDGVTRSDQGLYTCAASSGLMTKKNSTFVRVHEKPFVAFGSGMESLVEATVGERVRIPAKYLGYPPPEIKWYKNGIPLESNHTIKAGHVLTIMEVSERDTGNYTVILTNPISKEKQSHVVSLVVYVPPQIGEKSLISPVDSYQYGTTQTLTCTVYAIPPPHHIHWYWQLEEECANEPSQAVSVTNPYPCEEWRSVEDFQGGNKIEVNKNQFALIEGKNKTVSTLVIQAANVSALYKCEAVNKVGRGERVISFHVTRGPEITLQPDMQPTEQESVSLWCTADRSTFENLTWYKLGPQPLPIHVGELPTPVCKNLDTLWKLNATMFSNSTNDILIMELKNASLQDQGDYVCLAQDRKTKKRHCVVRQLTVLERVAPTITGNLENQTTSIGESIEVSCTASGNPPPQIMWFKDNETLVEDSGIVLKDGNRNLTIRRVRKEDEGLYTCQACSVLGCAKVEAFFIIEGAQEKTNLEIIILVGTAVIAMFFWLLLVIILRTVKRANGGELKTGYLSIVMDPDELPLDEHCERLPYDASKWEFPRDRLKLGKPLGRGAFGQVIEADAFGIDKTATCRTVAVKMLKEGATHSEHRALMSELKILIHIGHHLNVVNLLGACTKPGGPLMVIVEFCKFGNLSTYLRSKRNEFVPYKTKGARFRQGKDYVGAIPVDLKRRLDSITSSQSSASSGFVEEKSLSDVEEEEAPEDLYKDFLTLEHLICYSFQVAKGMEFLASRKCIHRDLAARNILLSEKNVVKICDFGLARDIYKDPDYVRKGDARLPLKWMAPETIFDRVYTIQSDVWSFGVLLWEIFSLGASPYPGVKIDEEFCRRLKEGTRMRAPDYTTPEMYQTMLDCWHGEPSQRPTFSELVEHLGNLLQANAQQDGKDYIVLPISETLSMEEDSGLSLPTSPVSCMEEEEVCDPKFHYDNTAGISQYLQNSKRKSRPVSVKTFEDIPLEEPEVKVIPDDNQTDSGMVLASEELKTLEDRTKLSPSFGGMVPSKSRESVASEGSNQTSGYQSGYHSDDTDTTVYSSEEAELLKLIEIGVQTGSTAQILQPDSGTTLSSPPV

[8] = target: T5, Muscarinic acetylcholine receptor M2 (Homo sapiens, UniProt P08172)
T5 sequence (P08172 whole entry): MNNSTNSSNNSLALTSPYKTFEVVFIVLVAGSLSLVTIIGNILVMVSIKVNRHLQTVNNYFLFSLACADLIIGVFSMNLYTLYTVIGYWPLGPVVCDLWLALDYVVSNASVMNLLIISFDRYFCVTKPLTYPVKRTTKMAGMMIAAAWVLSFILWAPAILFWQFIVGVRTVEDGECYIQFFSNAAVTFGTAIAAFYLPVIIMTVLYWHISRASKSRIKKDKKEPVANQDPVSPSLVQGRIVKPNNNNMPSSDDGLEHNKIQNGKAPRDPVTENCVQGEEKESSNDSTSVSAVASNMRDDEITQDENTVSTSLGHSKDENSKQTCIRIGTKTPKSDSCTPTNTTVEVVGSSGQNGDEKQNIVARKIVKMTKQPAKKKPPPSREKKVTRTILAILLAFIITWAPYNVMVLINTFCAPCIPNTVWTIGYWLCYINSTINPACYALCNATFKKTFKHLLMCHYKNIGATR

[9] = target: Sodium-dependent noradrenaline transporter (Homo sapiens, UniProt P23975)
Sodium-dependent noradrenaline transporter, sequence (P23975 whole entry): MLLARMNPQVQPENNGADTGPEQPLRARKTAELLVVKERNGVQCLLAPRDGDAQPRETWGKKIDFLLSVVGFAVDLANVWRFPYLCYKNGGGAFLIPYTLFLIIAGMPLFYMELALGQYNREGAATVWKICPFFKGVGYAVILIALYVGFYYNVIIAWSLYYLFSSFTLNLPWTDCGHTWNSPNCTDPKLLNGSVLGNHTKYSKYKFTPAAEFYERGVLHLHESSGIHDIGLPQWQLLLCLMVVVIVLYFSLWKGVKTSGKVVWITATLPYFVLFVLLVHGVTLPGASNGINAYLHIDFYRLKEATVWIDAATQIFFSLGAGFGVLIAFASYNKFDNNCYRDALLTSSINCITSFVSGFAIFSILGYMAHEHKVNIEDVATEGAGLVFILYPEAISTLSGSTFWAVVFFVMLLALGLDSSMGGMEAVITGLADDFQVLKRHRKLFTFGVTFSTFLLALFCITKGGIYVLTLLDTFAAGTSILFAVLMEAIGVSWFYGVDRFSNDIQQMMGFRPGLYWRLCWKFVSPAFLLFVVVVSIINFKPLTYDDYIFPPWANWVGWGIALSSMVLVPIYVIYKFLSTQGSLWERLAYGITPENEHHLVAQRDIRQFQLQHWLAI
Also: assay procedure not described here.

CN(C)CCC=C1c2ccccc2CCc2ccccc21 [AMITRIPTYLINE]
AC50 [1]: > 30 µM | AC50 [2]: > 30 µM | AC50 [3]: 7.42 µM | AC50 [4]: 1.27 µM | AC50 [5]: 0.337 µM | AC50 [6]: > 30 µM | AC50 [7]: > 30 µM

O=C(O)[C@H](O)[C@@H](O)[C@H](O)[C@H](O)CO [GLUCONIC ACID]
AC50 [8]: > 30 µM | AC50 [9]: > 30 µM | AC50 [2]: > 30 µM | AC50 [3]: > 30 µM | AC50 [4]: > 30 µM | AC50 [5]: > 30 µM | AC50 [6]: > 30 µM | AC50 [7]: > 30 µM

CC(C)(Oc1ccc(Cl)cc1)C(=O)NC(=O)NCN1CCOCC1 [PLAFIBRIDE]
AC50 [8]: > 30 µM | AC50 [9]: > 30 µM | AC50 [2]: > 30 µM | AC50 [3]: > 30 µM | AC50 [4]: > 30 µM | AC50 [5]: > 30 µM | AC50 [6]: > 30 µM | AC50 [7]: > 30 µM

N=C(N)NCC1COc2ccccc2O1 (stereo not given) [GUANOXAN]
AC50 [8]: > 30 µM | AC50 [9]: 5.56 µM | AC50 [2]: > 30 µM | AC50 [3]: > 30 µM | AC50 [4]: 0.15 µM | AC50 [5]: 1.27 µM | AC50 [6]: > 30 µM | AC50 [7]: > 30 µM

CN(C)CCCC1(c2ccc(F)cc2)OCc2cc(C#N)ccc21 (stereo not given) [CITALOPRAM]
AC50 [1]: > 30 µM | AC50 [2]: > 30 µM | AC50 [4]: > 30 µM | AC50 [6]: > 30 µM | AC50 [7]: > 30 µM

N#Cc1ccnc(N2C(=O)CC[C@H]2C(=O)N(c2cncc(F)c2)[C@H](C(=O)NC2CC(F)(F)C2)c2ccccc2Cl)c1 [IVOSIDENIB]
AC50 [8]: > 30 µM | AC50 [9]: > 30 µM | AC50 [2]: > 30 µM | AC50 [3]: > 30 µM | AC50 [4]: > 30 µM | AC50 [5]: > 30 µM | AC50 [6]: > 30 µM | AC50 [7]: > 30 µM

CC(C)Nc1cccnc1N1CCN(C(=O)c2cc3cc(NS(C)(=O)=O)ccc3[nH]2)CC1 [DELAVIRDINE]
AC50 [8]: > 30 µM | AC50 [9]: > 30 µM | AC50 [2]: > 30 µM | AC50 [3]: > 30 µM | AC50 [4]: 13.4 µM | AC50 [5]: > 30 µM | AC50 [6]: > 30 µM | AC50 [7]: > 30 µM

O=c1[nH]c2ccccc2n1CCN1CCN(c2cccc(C(F)(F)F)c2)CC1 [FLIBANSERIN]
AC50 [8]: > 30 µM | AC50 [9]: > 30 µM | AC50 [2]: > 30 µM | AC50 [3]: > 30 µM | AC50 [4]: 10.3 µM | AC50 [5]: 0.003 µM | AC50 [6]: > 30 µM | AC50 [7]: > 30 µM

CN(C)CCN(Cc1ccccc1)c1ccccn1 [TRIPELENNAMINE]
AC50 [1]: > 10 µM | AC50 [8]: 4.72 µM | AC50 [9]: 2.62 µM | AC50 [3]: 0.619 µM | AC50 [4]: 3.08 µM | AC50 [5]: > 30 µM | AC50 [6]: > 30 µM | AC50 [7]: > 30 µM

CCCCCCCC/C=C\CCCCCCCC(=O)O [OLEIC ACID]
AC50 [8]: > 30 µM | AC50 [9]: 27.2 µM | AC50 [3]: > 30 µM | AC50 [4]: > 30 µM | AC50 [5]: > 30 µM | AC50 [6]: 3.54 µM | AC50 [7]: > 30 µM
